Assay results: patent publication US7718764B2, “Biologically active peptide [sequence] derivatives” (CMS Peptides Patent Holding Company Limited, priority 2004, dated 2010)

Legend:
mice antibody formation = assay: Mice antibody formation in vivo (SRBC immunisation, serum haemolysis HC50); set-up: species or system BALB/c mice
Protocol: The mice were randomized into three groups: peptide (200 μg/kg/day), Cyclosporine A (10 mg/kg/day), and saline (0.5 ml). Each group contained 12 mice, 6 female and 6 male. The test substances were dissolved in 0.5 ml saline and applied intraperitoneally once per day for 20 consecutive days.
Sheep red blood cells (SRBC) were resuspended with saline to 2% (v/v) and 0.2 ml of the resuspended cell solution was applied intraperitoneally to each mouse on day 16th of the test substance administration. On the day after the last test substance administration, blood was collected from the inner canthus and left at room temperature for one hour for serum exudation. After centrifugation at 200 g for 10 minutes, the serum was diluted by 200 times with normal saline.
For the preparation of the complement working solution, 10 volumes of fresh Cavy serum was added into one volume of centrifuge-packed SRBC. […]
For assay of the mice antibody titer, 0.2 ml of 1% SRBC suspension was added to 1 ml diluted ice-cold mouse serum from each mouse. […] To 1 ml of this supernatant, 3 ml Drabkin solution was added and left at room temperature for 10 minutes, and then the OD540nm was measured. The reference lysis-50 reading at OD540nm was determined by following the exact procedure as the sample, except replacing half of the SRBC with saline and without the centrifugation removal of the unlysed SRBC. […]

mice T-lymphocyte [1] = assay: Mice T-lymphocyte transformation in vivo (i.p. dosing 20 days, spleen cells + ConA, MTT, stimulation index); set-up: species or system BALB/c mice
Protocol: Animals were randomized into two peptide groups (200 μg/kg/day and 50 μg/kg/day), Cyclosporine A group (10 mg/kg/day), and saline group (0.5 ml/day). Each group contained 10 mice, in which half were female and half were male. All test substances were dissolved in 0.5 ml saline and administered intraperitoneally once per day for 20 days. T-lymphocyte transformation and NK cell activity were examined on the day immediately following the last injection. The day after the last test substance administration, the mice were sacrificed by cervical dislocation. The spleens were isolated aseptically and manually dispersed in 10% FBS RPMI-1640 solution using an injection needle. The dispersed cell suspension was further sieved through a 100 gauge 150 μm diameter stainless steel sieve and adjusted to 4×10^6/ml. The cell suspensions were inoculated onto a 96 wells cell culture plate, 100 μl/well with the following design. Assay wells: 100 μl cell suspension+100 μl ConA Control wells: 100 μl cell suspension+100 μl RPMI-1640 Four assay and four control wells were set up for each animal. The plates were incubated at 37° C., 5% CO2 for 68 hours. MTT was then added and the plates read at OD 570 nm referenced at 630 nm with ELISA reader. Stimulation Index SI (%)=(assay well OD/control well OD)×100%.

Masugi nephritis rabbits [2] = assay: Masugi nephritis in rabbits: clearance of sheep anti-rabbit renal cortex IgG antibody (glomerular immunofluorescence); format: in vivo; conditions: saline treatment 8.7 ± 0.9
Protocol: (§1) Before the establishment of a disease state in the rabbits, measurements of serum BUN, creatinine, and urine protein over 24 hours were taken for each rabbit. If there was no abnormality in these measurements, the Masugi nephritis model was established in experimental rabbits by intravenous injection of sheep anti-rabbit renal cortex antiserum via the auricular vein, 0.5 ml per injection, one injection every 30 minutes, for a total of 4 injections per rabbit. The normal healthy (control) rabbit group was injected with saline in the same manner. Intravenous administration of the test substances via the auricular vein was started on the day after the injection of the antiserum, once per day, 1 ml per injection, for 30 consecutive days.
For observation of the effects of peptides on the clearance of sheep anti-rabbit renal cortex IgG antibody from Masugi nephritis rabbits, on the day after the last test substance administration, the rabbits were sacrificed by suffocation and the right kidney was extirpated, freeze-edged and then immunofluorescently stained for the presence of sheep IgG. The fluorescence-positive area of each glomerulus was counted. Thirty glomeruli per rabbit were examined and the average positive area per glomerulus was calculated.
(§2) Statistical significance was determined by the t-test of the SPSS software.

mice T-lymphocyte [3] = assay: Mice T-lymphocyte transformation induced by ConA in vitro (spleen cells, MTT); format: cell-based, BALB/c mice; conditions: for OD: Table 2, ConA 5 μg/ml, 68 hrs
Protocol: The spleens from healthy mice were isolated aseptically and manually dispersed in 10% FBS RPMI-1640 solution using an injection needle. The dispersed cell suspension was further sieved through a 100-gauge 150 μm diameter stainless steel sieve. The spleen cell suspension was adjusted to a density of 4×10^6/ml and was aliquoted onto 96-well cell culture plates at 100 μl/well. Peptides were dissolved in plain RPMI-1640. The design of the groupings was as given below.
Peptide group: 100 μl working peptide solution+75 μl spleen cell suspension+25 μl ConA working solution.
ConA control group: 100 μl RPMI-1640+75 μl spleen cell suspension+25 μl ConA working solution.
Negative control group: 125 μl RPMI-1640+75 μl spleen cell suspension.
The final concentration of ConA in the well was 5 μg/ml. The final concentrations of peptides in the well were 80 μg/ml, 16 μg/ml, 3.2 μg/ml, 0.64 μg/ml, and 0.128 μg/ml. Each peptide group contained three parallel wells, and eight or twelve wells for the control groups. The cells were incubated for 68 hrs at 37° C., 5% CO2. MTT method was used to obtain a reading of OD570 nm of each well referenced at 630 nm on an ELISA reader.

Masugi nephritis rabbits [4] = assay: Masugi nephritis in rabbits: urine protein; format: in vivo; conditions: for proteinuria Week 0: saline treatment 11.72 ± 3.18; for proteinuria Week 1: saline treatment 122 ± 91; for proteinuria Week 2: saline treatment 160 ± 138; for proteinuria Week 3: saline treatment 145 ± 33; for proteinuria Week 4: saline treatment 157 ± 71
Protocol: as §1, with “Twenty-two healthy rabbits were randomized into 5 groups: peptide (107.3 μg/kg/day and 58.5 μg/kg/day, 4 rabbits per group), dexamethasone (0.1 mg/kg/day, 4 rabbits), saline treatment (1 ml/day, 7 rabbits), and normal healthy (3 rabbits). Before” for “Before”
Urine was collected from each rabbit over a 24 hour period once per week and the protein content determined by the sulfosalicylic acid method.
as §2

Heymann nephritis rats = assay: Heymann nephritis in rats: 24 hr urine protein; format: in vivo, Wistar rats
Protocol: 20 healthy Wistar rats were randomized into two groups: peptide (200 μg/kg/day) and saline treatment (2 ml/day). Two ml of antigen were intraperitoneally injected to each rat, once every two weeks, for a total of 5 rounds of injection. Test substance administration by intraperitoneal injection was started on the day after the third immunization, once per day until the end of the experiment.
Quantification of uriner protein began at the third week of model establishment. A urine sample was collected from each rat over a 24 hour period once every […] the urine protein content quantified by the sulfosalicylic acid method.
Sample values were compared by t-test using SPSS software.

## PLNPK [CMS-010.26]
Mice antibody formation; 200 μg/kg/day i.p. 20 days, SRBC day 16, saline 167.6 ± 21.5
  HC50: 141.3 ± 29.3
Mice antibody formation; at suitable dosage, vs saline control P<0.05
  Effect on mice antibody formation in vivo: suppress
Mice T-lymphocyte [1]; Table 4, 200 μg/kg/day i.p. 20 days, saline 3.63 ± 0.69
  SI: 2.19 ± 0.59
Mice T-lymphocyte [1]; at suitable dosages, vs saline control P<0.05
  Effect on mice T-lymphocyte transformation in vivo: suppress
Masugi nephritis rabbits [2]; 58.5 μg/kg/day i.v. 30 days
  Positive area count/glomerulus: 6.3 ± 1.4
Masugi nephritis rabbits [2]; 107.3 μg/kg/day i.v. 30 days
  Positive area count/glomerulus: 5.6 ± 1.2
Mice T-lymphocyte [3]; peptide 0.128 μg/ml, ConA control 0.467 ± 0.043
  OD: 0.354 ± 0.017
Mice T-lymphocyte [3]; peptide 0.64 μg/ml, ConA control 0.467 ± 0.043
  OD: 0.348 ± 0.025
Mice T-lymphocyte [3]; peptide 3.2 μg/ml, ConA control 0.467 ± 0.043
  OD: 0.332 ± 0.015
Mice T-lymphocyte [3]; peptide 16 μg/ml, ConA control 0.467 ± 0.043
  OD: 0.356 ± 0.006
Mice T-lymphocyte [3]; peptide 80 μg/ml, MTT OD570 nm ref 630 nm, ConA control 0.467 ± 0.043, negative control 0.134 ± 0.011
  OD: 0.353 ± 0.016
Mice T-lymphocyte [3]; at suitable concentrations, vs ConA positive control P<0.05
  Effect on mice T-lymphocyte transformation induced by ConA in vitro: suppress
Masugi nephritis rabbits [4]; 58.5 μg/kg/day i.v.
  proteinuria Week 0: 9.53 ± 4.64 mg/dL
  proteinuria Week 1: 77 ± 62 mg/dL
  proteinuria Week 2: 150 ± 123 mg/dL
  proteinuria Week 3: 20 ± 12 mg/dL
  proteinuria Week 4: 36 ± 16 mg/dL
Masugi nephritis rabbits [4]; 107.3 μg/kg/day i.v.
  proteinuria Week 0: 9.84 ± 4.29 mg/dL
  proteinuria Week 1: 187 ± 184 mg/dL
  proteinuria Week 2: 114 ± 145 mg/dL
  proteinuria Week 3: 26 ± 24 mg/dL
  proteinuria Week 4: 28 ± 32 mg/dL
Masugi nephritis rabbits [4]; vs saline treatment control P<0.05
  Effect on severity of proteinuria in Masugi nephritis rabbits: decrease
Heymann nephritis rats; 200 μg/kg/day i.p., Week 3, saline treatment 4.1 ± 1.3
  24 hr. urine protein concentration Week 3: 6.2 ± 2.3 mg/dL
Heymann nephritis rats; 200 μg/kg/day i.p., Week 5, saline treatment 3.1 ± 0.8
  24 hr. urine protein concentration Week 5: 3.1 ± 1.4 mg/dL
Heymann nephritis rats; 200 μg/kg/day i.p., Week 7, saline treatment 10.9 ± 2.8
  24 hr. urine protein concentration Week 7: 3.9 ± 1.6 mg/dL
Heymann nephritis rats; 200 μg/kg/day i.p., Week 9, saline treatment 12.6 ± 1.2
  24 hr. urine protein concentration Week 9: 3.8 ± 2.2 mg/dL
Heymann nephritis rats; at suitable dosage, vs saline treatment P<0.05
  Effect on severity of proteinuria in Heymann nephritis rats: decrease
